Assay [1] relates to human eosinophils. As to the kind of experiment: Eosinophil shape change in human PMNL by flow cytometry (GAFS assay). It is filed as cell-based. Conditions: for IC50: Homo sapiens, Eosinophil, 1 μM histamine, FIG. 4B; for effect on histamine-induced eosinophil shape change: antagonist 10 μM, 1 μM histamine 10 min; for agonist effect on eosinophil shape change: FIG. 4C; for EC50: human PMNL, chemokines, FIG. 3D. How it is done: PMNL were prepared as described above and cells were resuspended in assay buffer (PBS containing 10 mM Ca^2+ and Mg^2+, 10 mM HEPES, 10 mM glucose, and 0.1% BSA, pH 7.2-7.4). Aliquots of cells (5×10^5 PMNL in 80 μl assay buffer) were pretreated with histamine receptor analogues (diphenhydramine, ranitidine, thioperamide, Compound A or H3 receptor antagonist) for 10 min at room temperature before addition of histamine or chemokines in 1.2-ml polypropylene cluster tubes (Costar, Cambridge, Mass.) in a final volume of 100 μl. The tubes were placed in a 37° C. water bath for 10 min (or as indicated), after which they were transferred to an ice-water bath, and 250 μl of ice-cold fixative (2% paraformaldehyde in PBS) was added to terminate the reaction and to maintain the cell shape change. […] Cell shape change was monitored in forward scatter signals. To identify eosinophils and neutrophils in PMNL, cells were stained on ice for 30 min with saturating concentrations of FITC-conjugated anti-CCR3 or anti-CD16 antibodies, which are specific for eosinophils or neutrophils, respectively. Samples after antibody staining were analyzed in flow cytometry.
(In flow cytometry, cells or beads pass a laser one at a time.)

Assay [2] relates to human eosinophils. Put plainly: Cell surface expression of adhesion molecules on eosinophils by flow cytometry. It is filed as cell-based. As to conditions: antagonist 10 μM. How it is done:
Purified eosinophils were used to study cell surface expression of adhesion molecules. Eosinophils were resuspended in PBS containing 10 mM Ca^2+ and Mg^2+, 10 mM HEPES, 10 mM glucose, and 0.1% BSA, pH 7.2-7.4. Aliquots of cells (5×10^5 PMNL) were pretreated with histamine receptor analogues (as described above) for 10 min before addition of histamine or chemokines in 1.2-ml polypropylene cluster tubes (Costar, Cambridge, Mass.) in a final volume of 100 μl. The tubes were placed in a 37° C. water bath for 10 min (or as indicated), after which they were transferred to an ice-water bath, and 250 μl of ice-cold fixative (0.5% paraformaldehyde in PBS) was added. Samples were then incubated on ice for 30 min with saturating concentration of either FITC or phycoerytherine-conjugated anti-CD11a, anti-CD11b or anti-CD54 antibodies, washed, and then analyzed by flow cytometry.

For assay [3], the system named is purified human eosinophils. Put plainly: In vitro eosinophil chemotaxis assay (Transwell). It is filed as cell-based. As to conditions: for IC50: Homo sapiens, Eosinophil, 1 μM histamine in lower chamber, read-out: IC50 in blocking 1 μM histamine-induced eosinophil chemotaxis; for effect on histamine-induced eosinophil chemotaxis: antagonist 10 μM in both chambers; for EC50: Transwell, 2 h. How it is done: Transwells (Costar, Cambridge, Mass.) with 5 μm pore size were coated with 100 μl of 100 ng/ml human fibronectin (Sigma) for 2 h at room temperature. After removal of excess fibronectin, 600 μl of RPMI-1640 medium containing 0.5% BSA and different concentrations of histamine (0.01-100 μM) was added to the bottom chamber, Eosinophils (2×10^5/well) were added to the top chamber. Histamine receptor analogues (diphenhydramine, ranitidine, thioperamide, Compound A or Compound B) were added to both the top and bottom chambers to a final concentration of 10 μM or at other concentration as stated in figure legends. The plates were incubated for 2 h at 37° C. and the number of cells migrated to the bottom chamber was counted for 1 min using flow cytometer.

Assay [4] relates to human eosinophils. Conditions: cited from earlier work.
The subject of assay [5] is eosinophils in human whole blood. As to the kind of experiment: Whole blood eosinophil shape change GAFS assay (Example 1A). It is filed as cell-based. As to conditions: for agonist effect on eosinophil shape change in whole blood: FIGS. 9A and 9B. How it is done:
Starting materials were obtained as described in the experiments above. Human whole blood samples were used to study eosinophil shape change response. Human blood samples collected from healthy donors were treated with 3.8% tri-sodium citrate as anti-coagulator (or other anti-coagulators) and centrifuges at 300 rpm. The samples were used for experiments within 1 hour. Aliquots of 80 μl whole blood were pretreated with histamine receptor analogues (such as H1 receptor antagonist diphenhydramine, H2 antagonist ranitidine, H4 receptor antagonists thioperamide and Compound A, and H3 receptor antagonist Compound B) for 10 minutes before addition of histamine or chemokines in 1.2-ml polypropylene cluster tubes (Costar, Cambridge, Mass.) in a final volume of 100 μl. The tubes were placed in a 37° C. water bath for 10 min, after which they were transferred to an ice-water bath, and 250 μl of ice-cold fixative (2% paraformaldehyde in PBS or other fixatives) was added to terminate the reaction and to maintain the cell shape change. Red cells were lysed with 3 ml Qiagen lysis solution (Qiagen, Valencia, Calif.) for 10 minutes at 4° C. Leukocytes were recovered by centrifugation at 2000 rpm for 5 minutes, washed once with either PBS containing 10 mM Ca^2+ and Mg^2+, 10 mM HEPES, 10 mM glucose, and 0.1% BSA (for FIGS. 10 and 11) or PBS containing 0.5% BSA and 2 mM EDTA (for other figures), and then resuspended in the same buffer. The cell shape change was analyzed on a FACScan flow cytometer (Becton Dickinson, Mountain View, Calif.). Eosinophils were gated based on their high autofluorescence relative to neutrophils and shape change was monitored in forward scatter signals. Data were acquired for 1500 high-fluorescence eosinophil events. The results are expressed as the percentage increase in FSC compared to unstimulated cells. Results obtained are provided in the Tables I and II, below, which also correspond to FIG. 7 and FIG. 8, respectively.

Assay [6] shares this test system. Put plainly: Whole blood eosinophil shape change assay with ranitidine co-treatment (Example 1B). As to conditions: FIG. 11. It is filed as cell-based. How it is done: In this example, starting materials were obtained as described in Example 1A. Human whole blood samples were used to study eosinophil shape change response. Human blood samples collected from healthy donors were treated with 3.8% tri-sodium citrate as anti-coagulator (or other anti-coagulators) and centrifuges at 300 rpm. The samples were used for experiments within 1 hour. […] The cell shape change was analyzed on a FACScan flow cytometer (Becton Dickinson, Mountain View, Calif.). Eosinophils were gated based on their high autofluorescence relative to neutrophils and shape change was monitored in forward scatter signals. Data were acquired for 1500 high-fluorescence eosinophil events. Results are expressed as the percentage increase in FSC compared to unstimulated cells.

Setting [7] is: read-out: IC50 in blocking 1 μM histamine-induced eosinophil shape change.
[8] abbreviates: histamine 0.1 uM + compound A 10 uM.
Setting [9] is: histamine 1 uM + compound A 10 uM.
The mark [10] stands for this setting: histamine 10 uM + compound A 10 uM.

The values that follow come from patent publication US20080102476A1, “Analyzing Histamine H4 Receptor-Mediated Effects In Whole Blood” (priority 2003, published 2008).

Read-outs that look alike come from different tables or passages of the source.

What is called IC50 is the concentration that gives 50% inhibition. As to `S=C(NC1CCCCC1)N1CCC(c2cnc[nH]2)CC1` [thioperamide], the IC50 with human eosinophils [1] (setting [7]) stood at 128 nM. In addition, the “effect on histamine-induced eosinophil shape change” value in the assay with human eosinophils [1] is listed as “blocked the histamine-induced eosinophil shape change completely”. In addition, the “effect on histamine-induced up-regulation of CD11b/CD18 and CD54 expression” value (from here on “effect … of CD11b/CD18 and CD54 expression”) in the assay with human eosinophils [2] was “abolished”. Further, in assay [3], the IC50 is 519 nM and the “effect on histamine-induced eosinophil chemotaxis” value is recorded as “inhibited completely”. Besides, the “effect on eosinophil chemotaxis toward histamine” value in the assay with human eosinophils [4] was “blocked”.
Take `NC(=NCc1ccc(Cl)cc1)SCCCc1cnc[nH]1` [clobenpropit]: the “agonist effect on eosinophil shape change” value with human eosinophils [1] is “partial shape change”. The “agonist effect on eosinophil shape change in whole blood” value in assay [5] is “mimic histamine in inducing eosinophil shape change”.
Consider `N=C(N)SCCc1cnc[nH]1` [imetit], for which the “agonist effect on eosinophil shape change” value with human eosinophils [1] is “partial shape change”. Moreover, the “agonist effect on eosinophil shape change in whole blood” value in assay [5] is listed as “mimic histamine in inducing eosinophil shape change”.
For the molecule `CN(C)CCOC(c1ccccc1)c1ccccc1` [diphenhydramine], the “effect on histamine-induced eosinophil shape change” value in the assay with human eosinophils [1] was “did not show any inhibitory effects”. The “effect … of CD11b/CD18 and CD54 expression” value in the assay on human eosinophils [2] was “ineffective”. The “effect on histamine-induced eosinophil chemotaxis” value in assay [3] is reported as “minimal”.
Broadly, the EC50 is the concentration giving half of the maximal effect. In the assay with human eosinophils [1], “eotaxin: chemokine purchased from R&D Systems” showed an EC50 of 0.017 nM.
Consider `CN1CCN(C(=O)c2cc3cc(Cl)ccc3[nH]2)CC1` [Compound A, (5-chloro-1H-indol-2-yl)-(4-methyl-piperazin-1-yl)-methanone], for which the IC50 in the assay with human eosinophils [1] (setting [7]) is 270 nM; in assay [3] it was 86 nM. For the same molecule, the “effect on histamine-induced eosinophil shape change” value in the assay with human eosinophils [1] is reported as “blocked the histamine-induced eosinophil shape change completely”. Moreover, the “effect … of CD11b/CD18 and CD54 expression” value in the assay on human eosinophils [2] is given as “abolished”. The “effect on histamine-induced eosinophil chemotaxis” value in assay [3] is reported as “inhibited completely”. The “GeoMean (FSC of eosinophils)” value in assay [5] (histamine 0.00 uM + Compound A 10 uM) is given as 268.1; in assay [5] (setting [8]), 272.1; in assay [5] (setting [9]), 270.9; in assay [5] (setting [10]), 267.3. Moreover, the “% change (increase in FSC compared to unstimulated cells)” value in assay [5] (histamine 0 uM + compound A 10 uM) is 0.0%; in assay [5] (setting [8]), 1.5%; in assay [5] (setting [9]), 1.1%; in assay [5] (setting [10]), −0.3%. Further, in assay [5] (whole blood, FIG. 8), the “effect on eosinophil shape changes induced by histamine from 0.1 to 10 μM” value is on record as “blocked”. For the same molecule, the “effect on H4 receptor-dependent shape change (histamine + ranitidine)” value in assay [6] is on record as “antagonized”.
In the case of “MCP-3: chemokine purchased from R&D Systems”, the EC50 in the assay on human eosinophils [1] was 0.202 nM; in assay [3], 43 nM.
Regarding `Cc1ccn2cc(-c3ccc(OCCCN4CCCCC4)cc3)nc2c1` [Compound B, 7-methyl-2-[4-(3-piperidin-1-yl-propoxy)-phenyl]-imidazo[1,2-a]pyridine], in the assay with human eosinophils [1] (read-out: IC50 in blocking 1 μM histamine-induced eosinophil shape change (ineffective up to)), the IC50 is above 30000 nM. Besides, in the assay with human eosinophils [1], the “effect on histamine-induced eosinophil shape change” value is reported as “did not show any inhibitory effects”. Also, the “effect … of CD11b/CD18 and CD54 expression” value with human eosinophils [2] was “ineffective”. Further, the “effect on histamine-induced eosinophil chemotaxis” value in assay [3] was “minimal”.

B1: eotaxin-2: chemokine, positive control in the whole blood assay (protein, UniProt O00175 27-119, looked up)
C-C motif chemokine 24: VVIPSPCCMFFVSKRIPENRVVSYQLSSRSTCLKAGVIFTTKKGQQFCGDPKQEWVQRYMKNLDAKQKKASPRARAVAVKGPVQRYPGNQTTC
With B1, the values for the EC50 (in the assay with human eosinophils [1]; in assay [3]) were 0.021 nM and 1.9 nM, respectively. The “% change (increase in FSC compared to unstimulated cells)” value was determined as 3.5% in assay [5] (Eotaxin2 0.01 nM); 1.0% in assay [5] (Eotaxin2 0.1 nM); 26.3% in assay [5] (Eotaxin2 1 nM); 53.4% in assay [5] (Eotaxin2 10 nM); 19.4% in assay [5] (Eotaxin2 100 nM). Further, the “GeoMean (FSC of eosinophils)” value in assay [5] (Eotaxin2 0.01 nM) is 233.4; in assay [5] (Eotaxin2 0.1 nM), 227.7; in assay [5] (Eotaxin2 1 nM), 284.7; in assay [5] (Eotaxin2 10 nM), 346.0; in assay [5] (Eotaxin2 100 nM), 269.3.
